# Test results from ChEMBL document CHEMBL2407031, “Structure-activity relationship study of phenylpyrazole derivatives as a novel class of anti-HIV agents” (Bioorg Med Chem Lett, 2013).
# Columns and labels:
# [1] = Cytotoxicity against human NCK45 cells at 1 uM; type: cell-based; conditions: nck45, 1 µM
# [2] = system: Human immunodeficiency virus 1; experiment: Antiviral activity against HIV-1 infected in human NCK45 cells assessed as inhibition of infection after 48 hrs by dual-reporter gene assay; type: functional, organism-based; conditions: Human immunodeficiency virus 1, NCK45, 48 h
# [3] = Cytotoxicity against human NCK45 cells at 10 uM; type: cell-based; conditions: nck45, 10 µM
SMILES,Activity [1],EC50 [2] [nM],Activity [3]
CCC(=O)Nc1cc(CNc2c(C#N)c(C)nn2-c2cccc(-c3ccccc3)c2)cc(Cl)c1O,Toxic,130,
CCC(=O)Nc1cc(CNc2c(C#N)c(C)nn2-c2cccc(C)c2)cc(Cl)c1O,,370,Toxic
CCC(=O)Nc1cc(CNc2c(C#N)c(C)nn2-c2cccc(F)c2)cc(Cl)c1O,,330,Toxic
CCC(=O)Nc1cc(CNc2c(C#N)c(C)nn2-c2cccc(-c3ccncc3)c2)cc(Cl)c1O,,> 1000,Toxic
CCC(=O)Nc1cc(CNc2c(C#N)c(C)nn2-c2cccc(-c3ccccc3OC)c2)cc(Cl)c1O,Toxic,> 100,
CCC(=O)Nc1cc(CNc2c(C#N)c(C)nn2-c2cccc(-c3ccccc3Cl)c2)cc(Cl)c1O,,250,Toxic
CCC(=O)Nc1cc(CNc2c(C#N)c(C)nn2-c2ccccc2)cc(Cl)c1OC,,> 10000,
CCC(=O)Nc1cc(CNc2c(C#N)c(C)nn2-c2cc(Cl)cc(Cl)c2)cc(Cl)c1O,,> 1000,Toxic
CCC(=O)Nc1cc(Cl)cc(CNc2c(C#N)c(C)nn2-c2ccccc2)c1,,> 10000,
CCC(=O)Nc1cc(/C=C/c2c(C#N)c(C)nn2-c2ccccc2)cc(Cl)c1O,,440,
CCC(=O)Nc1cc(CNc2c(C#N)c(C)nn2-c2cccc(C(F)(F)F)c2)cc(Cl)c1O,Toxic,> 100,
CCC(=O)Nc1cc(CNc2c(C#N)c(C)nn2-c2cccc(Br)c2)cc(Cl)c1O,Toxic,> 100,
CCC(=O)Nc1cc(CNc2c(C#N)c(C)nn2-c2cccc(-c3ccc(Cl)c(Cl)c3)c2)cc(Cl)c1O,Toxic,47,
CCC(=O)Nc1cc(CNc2c(C#N)c(C)nn2-c2ccccc2)cc(C)c1O,,> 10000,
CCC(=O)Nc1cc(CNc2c(C#N)c(CC)nn2-c2ccccc2)cc(Cl)c1O,,> 10000,
CC(=O)Nc1cc(CNc2c(C#N)c(C)nn2-c2ccccc2)cc(Cl)c1O,,> 1000,Toxic
CCC(=O)Nc1cc(CNc2c(C#N)c(C)nn2-c2cccc(NC(C)=O)c2)cc(Cl)c1O,,> 10000,
CCC(=O)Nc1cc(CNc2cc(C)nn2-c2ccccc2)cc(Cl)c1O,,> 10000,
CCNC(=O)c1cc(CNc2c(C#N)c(C)nn2-c2ccccc2)cc(Cl)c1O,,> 1000,Toxic
CCC(=O)Nc1cc(CNc2c(C#N)c(C)nn2-c2cccc(OC)c2)cc(Cl)c1O,,> 10000,
CCC(=O)Nc1cc(CNc2c(C#N)c(C)nn2C2CCCCC2)cc(Cl)c1O,,> 1000,Toxic
CCC(=O)Nc1cc(CNc2c(C#N)c(C)nn2-c2ccc3ncccc3c2)cc(Cl)c1O,,> 10000,
CCCC(=O)Nc1cc(CNc2c(C#N)c(C)nn2-c2ccccc2)cc(Cl)c1O,,3300,
CCC(=O)Nc1cc(CNc2c(C#N)c(-c3ccccc3)nn2-c2ccccc2)cc(Cl)c1O,,> 10000,

SMILES,Activity [1],EC50 [2] [nM],Activity [3]
CCC(=O)Nc1cc(CNc2c(C#N)c(C)nn2-c2ccccn2)cc(Cl)c1O,Toxic,> 100,
CCC(=O)Nc1cc(/N=N/c2c(C#N)c(C)nn2-c2ccccc2)cc(Cl)c1O,,320,
CCC(=O)Nc1cc(CNc2c(C#N)c(C)nn2-c2cccc(-c3ccc(Cl)cc3)c2)cc(Cl)c1O,Toxic,> 100,
CCC(=O)Nc1cc(CNc2c(C#N)c(C)nn2-c2ccc(C)cc2)cc(Cl)c1O,,> 1000,Toxic
CCC(=O)Nc1cc(CNc2c(C#N)c(C)nn2-c2cccc3ccccc23)cc(Cl)c1O,,> 1000,Toxic
CCC(=O)Nc1cc(CNc2c(C#N)c(C)nn2-c2ccccc2)cc(Cl)c1O,,360,
CCC(=O)Nc1cc(CNc2c(C#N)c(C)nn2-c2cccc(-c3cnc4ccccc4c3)c2)cc(Cl)c1O,Toxic,> 100,
CCC(=O)Nc1cc(CNc2c(C#N)cnn2-c2ccccc2)cc(Cl)c1O,,> 1000,Toxic
CCC(=O)Nc1cc(CNc2c(C#N)c(C)nn2-c2cccc(-c3ccc(C)cc3)c2)cc(Cl)c1O,Toxic,97,
CCC(=O)Nc1cc(CNc2c(C(=O)OC)c(C)nn2-c2ccccc2)cc(Cl)c1O,,> 1000,Toxic
CCC(=O)Nc1cc(CNc2c(C#N)c(C)nn2-c2ccc3ccccc3c2)cc(Cl)c1O,,> 1000,Toxic
CCC(=O)Nc1cc(CNc2c(C#N)c(C)nn2-c2cccc(-c3cccc(Cl)c3)c2)cc(Cl)c1O,Toxic,> 100,
CCC(=O)Nc1cc(CNc2c(C#N)c(C)nn2-c2ccccc2)ccc1O,,> 10000,
CCC(=O)Nc1cc(CNc2c(C#N)c(C)nn2-c2cccnc2)cc(Cl)c1O,,> 10000,
CCC(=O)Nc1cc(CNc2c(C#N)c(C)nn2-c2cccc(-c3cccc(C)c3)c2)cc(Cl)c1O,Toxic,58,
CCC(=O)Nc1cc(CNc2c(C#N)c(C)nn2-c2ccccc2C)cc(Cl)c1O,,> 1000,Toxic
CCC(=O)Nc1cc(CNc2c(C#N)c(C)nn2-c2cccc(-c3cccc(OC)c3)c2)cc(Cl)c1O,Toxic,> 100,
CCC(=O)Nc1cc(CNc2c(C#N)c(C)nn2-c2cccc(-c3ccccc3C)c2)cc(Cl)c1O,Toxic,> 100,
CCC(=O)Nc1cc(CNc2c(C#N)c(C)nn2-c2cccc([N+](=O)[O-])c2)cc(Cl)c1O,,> 1000,Toxic
CCCCCC(=O)Nc1cc(CNc2c(C#N)c(C)nn2-c2ccccc2)cc(Cl)c1O,,> 10000,
CCC(=O)Nc1cc(CNc2c(C#N)c(C)nn2-c2nccc3ccccc23)cc(Cl)c1O,,> 1000,Toxic
CCC(=O)Nc1cc(CNc2c(C#N)c(C)nn2-c2cccc(-c3ccc4ccccc4c3)c2)cc(Cl)c1O,Toxic,> 100,
CCC(=O)Nc1cc(CNc2c(C#N)c(C)nn2-c2cccc(-c3ccc(OC)cc3)c2)cc(Cl)c1O,Toxic,> 100,
CCC(=O)Nc1cc(CNc2c(C#N)c(C)nn2C)cc(Cl)c1O,,> 10000,
